Earlier results on three compounds are cited in paper PMC6151550, “Inhibitory Effect of Selaginellins from Selaginella tamariscina (Beauv.) Spring against Cytochrome P450 and Uridine 5′-Diphosphoglucuronosyltransferase Isoforms on Human Liver Microsomes” (Molecules : A Journal of Synthetic Chemistry and Natural …, 2017).

Structures are written as SMILES.

The subject of one data set is UGT1A1. Set-up: method as in PMID 25216634. Conditions: read-out: Ki against UGT1A1-mediated SN-38 glucuronidation; cited from earlier work.
The test system of the next data set is CYP2C8. To be noted: cited from earlier work.

One may read the Ki as a dissociation constant, usually derived from enzyme kinetics or from competition with a known ligand. On to `CC(C)=CCc1cc2c(cc1O)oc(=O)c1c3ccc(O)cc3oc21` [psoralidin], for which the Ki in the data set with UGT1A1 is 5.8 µM.
The term IC50 denotes the concentration needed to halve the response being measured. On to `O=c1c(O)c(-c2ccc(O)c(O)c2)oc2cc(O)cc(O)c12` [quercetin], for which the IC50 in the data set on CYP2C8 is […].
`Cc1c(C)c2c(c(C)c1O)CCC(C)(COc1ccc(CC3SC(=O)NC3=O)cc1)O2` (stereo not drawn) [troglitazone]: the IC50 with CYP2C8 was 2.3 µM.
